{"source": "paper PMC7901654", "about": "“Bioisosteric Discovery of NPA101.3, a Second-Generation RET/VEGFR2 Inhibitor Optimized for Single-Agent Polypharmacology” (Journal of Medicinal Chemistry, 2020)", "key": {"[1]": {"test_system": "RET/M918T, RET/A883F, and RET/V804L/M", "assay": "RET phosphorylation Western blot in RAT1 cells, other point mutants", "assay_type": "cell-based", "conditions": "2 h", "description": "Fibroblasts transfected with RET/C634R were treated with increasing doses of NPA101.3, ranging from 0.1 to 10.0 nM. RET autophosphorylation was assessed by Western blotting using two different antibodies that can recognize phosphorylated Y905, located in the RET kinase activation loop, or Y1062, a multidocking site involved in RET downstream signaling.[41]\nFigure 4 NPA101.3-mediated inhibition of phosphorylation and signaling of oncogenic RET mutants and VEGFR2 in intact cells. Serum-starved RAT1 cells exogenously expressing the (A and B) indicated RET point mutants or (C) NIH3T3 cells exogenously expressing the indicated RET rearranged mutants were treated for 2 h with the indicated concentrations of the compound. Total cell lysates (50 μg) were subjected to immunoblotting with anti-phospho-Y1062 (αp1062) and anti-phospho-Y905 (αp905) RET antibodies. The blots were normalized using the anti-RET (αRET) antibody. (D) HEK293 cells were transiently transfected with human VEGFR2; 36 h after transfection, cells were serum starved for 12 h. The indicated doses of the compound or vehicle (NT) were added for 2 h, and then VEGFA (100 ng/mL) stimulation was applied for 15 min. […]\nProtein lysates were prepared according to standard procedures. […] Immune complexes were detected with the enhanced chemiluminescence kit (Amersham Pharmacia Biotech, Little Chalfont, U.K.). […]"}, "[2]": {"test_system": "NIH3T3 HRAS/G12V cells", "assay": "Cell growth curves, transformed NIH3T3", "assay_type": "cell-based", "conditions": "up to 100.0 nM", "description": "Nthy-ory-3-1 (10000 per well), TPC-1 (10000 per well), MZ-CRC-1 (100000 per well), TT (200000 per well), Lc-2/ad (100000 per well), BCPAP (10000 per well), 8505-C (10000 per well), PC-9 (10000 per well), A549 (10000 per well), CALU-1 (10000 per well), NIH3T3 RET/C634Y (10000 per well), and NIH3T3 HRAS/G12V (10000 per well) were seeded in six-well tissue culture plates. Cells were kept in 2% (TPC-1), 5% (Nthy-ori-3-1), or 10% (BCPAP, 8505-C, CALU-1, A549, PC-9, TT, MZ-CRC-1, and Lc-2/ad) fetal calf serum or in 2% (NIH3T3 RET/C634Y and HRAS/G12V) calf serum. Ba/F3 cells (200000 per well in 2 mL) were seeded in six-well tissue culture plates and kept in 10% fetal calf serum. The day after plating, different concentrations of the drug or vehicle were added to the medium and changed every 2–3 days. Cells were counted every day (Ba/F3), every 2 days (fibroblasts), or every 2–3 days (human cell lines). […] IC50 doses were calculated through a curve fitting analysis from last day of growth curves using the PRISM software program (Graphpad Software Inc.).\nSupplementary Figure S9: NPA101.3-mediated inhibition of proliferation of RET-transformed NIH3T3 cells […] Serum-starved NIH3T3 cells exogenously expressing the RET/C634Y or HRAS/G12V oncogenes were incubated with vehicle (NT: not treated) or the indicated concentrations of the compound and counted at the indicated time points. […]"}}, "data": [{"smiles": "CC(C)(C)c1cc(NC(=O)Cc2ccc(-n3cnc4cc(-c5ccc(S(C)(=O)=O)cc5)ccc43)cc2)no1", "note": "[NPA101.3]", "values": [{"measurement": "phosphorylation of other MTC-associated RET oncogenic point mutants", "setting": "[1]", "result": "inhibited"}, {"measurement": "effect on proliferation of NIH3T3 HRAS/G12V cells", "setting": "[2]", "result": "virtually no effect"}]}]}
